Experimental data as given in patent US12006302B2, “Tau PET imaging ligands” (Janssen Pharmaceutica NV, priority 2016, dated 2024).

How the values were obtained:
[1] = system: AD brain containing tau and Aβ pathology; assay: in vitro binding of tritiated tracers to frozen AD brain slices with tau and Aβ pathology; set-up: species or system human; settings: tracer 10 nM
Method: (§1) The tracer was tested at 10 nM and higher concentrations were not investigated in this study.
(§2) [^3H]-AV-45 (selective for Aβ plaques) binds both tau and Aβ pathology (Aβ+/tau+, Tissue #28391) and Aβ pathology only (Aβ+/tau−, Tissue #92/050) human tissues as expected (FIG. 3L-M). As a control for the human AD tissues (Tissue #28391: FIG. 4, Tissue #92/050: FIG. 5) and striatal tissue (FIG. 6) used in this study immunohistochemistry was performed. […] Furthermore, MAO-B and MAO-A expression in the human striatal tissue (#S96/037) was confirmed using immunohistochemistry (FIG. 6).

MAO = assay: in vitro binding of tritiated tracers to MAO-rich human tissue (striatum); settings: tracer 10 nM
Method: as §1
In comparison, the tau tracer [^3H]-THK-5351 and the Aβ tracer [^3H]-AV-45 were used as THK-5351 is known to also bind MAO.

[2] = system: AD tissue containing only Aβ plaques; assay: in vitro binding of tritiated tracers to tau-negative AD tissue; set-up: species or system human; settings: tracer 10 nM
Method: as §1, §2

[3] = molecular target: peripheral cortical benzodiazepine receptors in activated microglia (Homo sapiens, UniProt P30536); settings: literature; cited from earlier work
peripheral cortical benzodiazepine receptors in activated microglia, sequence (P30536 whole entry): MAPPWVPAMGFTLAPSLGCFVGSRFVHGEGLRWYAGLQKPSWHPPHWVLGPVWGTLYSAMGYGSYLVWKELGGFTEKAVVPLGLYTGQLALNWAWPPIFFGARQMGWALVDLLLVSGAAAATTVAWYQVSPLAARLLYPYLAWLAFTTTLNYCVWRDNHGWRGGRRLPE

[4] = literature; cited from earlier work
[5] = molecular target: T1, amyloid plaque-rich, NFT-poor AD brain homogenates (Homo sapiens, UniProt P05067); settings: literature; cited from earlier work
T1 construct: amyloid plaques which form by aggregation of beta-amyloid peptide; host or cells: AD brain homogenates
T1 sequence (P05067 672-713 limits assumed): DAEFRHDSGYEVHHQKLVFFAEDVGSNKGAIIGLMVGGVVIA

[6] = system: human AD brain cortex homogenates containing abundant NFT; settings: literature; cited from earlier work
PHF = PHF (Homo sapiens, UniProt P10636); settings: literature; cited from earlier work
PHF, sequence (P10636 1-441 isoform P10636-8): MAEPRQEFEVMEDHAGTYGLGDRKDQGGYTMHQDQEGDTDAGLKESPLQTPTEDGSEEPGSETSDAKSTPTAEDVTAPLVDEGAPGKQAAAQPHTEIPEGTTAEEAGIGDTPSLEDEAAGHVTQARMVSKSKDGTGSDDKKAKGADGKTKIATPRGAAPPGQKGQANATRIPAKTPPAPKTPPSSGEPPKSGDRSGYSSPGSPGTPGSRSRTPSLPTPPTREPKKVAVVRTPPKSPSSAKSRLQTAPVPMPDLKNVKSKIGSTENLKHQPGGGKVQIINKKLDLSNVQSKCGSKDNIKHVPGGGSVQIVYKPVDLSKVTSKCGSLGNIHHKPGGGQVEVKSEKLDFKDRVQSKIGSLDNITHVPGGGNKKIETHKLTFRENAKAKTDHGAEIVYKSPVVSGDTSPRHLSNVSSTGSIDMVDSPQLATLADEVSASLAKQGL

monoamine oxidase MAO-B = molecular target: T2, monoamine oxidase MAO-B (Homo sapiens, UniProt P27338); settings: literature; cited from earlier work
T2 construct: PET imaging of the human brain with the quinoline compound; host or cells: human brain in vivo
T2 sequence (P27338 1-520): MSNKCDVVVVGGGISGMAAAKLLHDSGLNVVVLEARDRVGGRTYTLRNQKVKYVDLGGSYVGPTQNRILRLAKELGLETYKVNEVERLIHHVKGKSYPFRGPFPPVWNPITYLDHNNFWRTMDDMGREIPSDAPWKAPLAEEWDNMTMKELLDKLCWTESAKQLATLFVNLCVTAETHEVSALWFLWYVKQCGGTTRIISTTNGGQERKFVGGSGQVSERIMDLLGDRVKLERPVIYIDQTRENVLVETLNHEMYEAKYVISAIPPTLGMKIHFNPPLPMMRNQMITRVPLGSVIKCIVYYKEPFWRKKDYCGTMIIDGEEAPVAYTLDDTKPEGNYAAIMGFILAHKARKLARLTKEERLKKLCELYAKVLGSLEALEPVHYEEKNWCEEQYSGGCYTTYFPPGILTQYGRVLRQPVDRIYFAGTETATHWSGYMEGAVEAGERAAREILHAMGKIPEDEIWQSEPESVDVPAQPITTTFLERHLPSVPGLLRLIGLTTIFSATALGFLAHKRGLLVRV

For `Cc1cnc(Nc2ccc3cnccc3c2)cc1F` [[^3H]-Co. No. 1], the “tracer binding to AD brain slices containing tau and Aβ pathology” value [1] was “binds”, the “tracer binding to MAO-rich human tissue (striatum)” value (MAO) was “no binding” and the “tracer binding to tau-negative AD tissue containing only Aβ plaques” value [2] was “does not bind”.

For `CNc1ccc(-c2ccc3cc(OC[C@H](O)CF)ccc3n2)cn1` [[^3H]-THK-5351, reference compound], the “tracer binding to MAO-rich human tissue (striatum)” value (MAO) was “binds” and the “tracer binding to tau-negative AD tissue containing only Aβ plaques” value [2] was “binds”.

For `CCC(C)N([11CH3])C(=O)c1cc2ccccc2c(-c2ccccc2Cl)n1` (centres unmarked) [[^11C]PK11195], the “brain retention, patients versus healthy volunteers” value [3] is given as “failing to show any differences”.

For `Nc1c(F)ccc2cnc(-n3ccc4ccncc43)cc12` [^18F-MK-6240, 6-fluoro-3-(1H-pyrrolo[2,3-c]pyridine-1-yl)isoquinoline-5-amine], the “defluorination as skull uptake” value [4] is given as “Moderate defluorination”, the “binding to amyloid plaque-rich, NFT-poor AD brain homogenates” value [5] is given as “binds poorly” and the “binding to human AD brain cortex homogenates containing abundant NFT” value [6] is given as “binds with high affinity”.

For `CNc1ccc(-c2ccc3cc(OC[C@H](O)C[18F])ccc3n2)cn1` [^18F-THK5351], the “affinity to PHF” value (PHF) is listed as “high affinity” and the “off-target binding in PET imaging of the human brain” value (monoamine oxidase MAO-B) is listed as “confounded by off-target binding”.
